The numbers were not newly measured in PubChem BioAssay AID1259409 (Chemical Carcinogenesis Research Information System (CCRIS), 2018), which cites them from elsewhere.

The series deals with rodent chemically induced tumor inhibition, incidence and multiplicity. Nature of the series: CCRIS tumor inhibitor studies. Particulars: Promoter: NONE USED.

Turning to `Cc1cc(C(C)(C)C)c(O)c(C(C)(C)C)c1`, the “tumour outcome (control, treated, inhibition, significance)” value was 100%, 85%, 15%, not calculated (Carcinogen: N-BIS(2-HYDROXYPROPYL)NITROSAMINE, 53609-64-6, Dose [Inhibitor]: 0, 1% IN DIET FOR 30 WK BEGINNING POST CARCINOGEN TREATMENT (STUDY DURATION: 32 WK), Route [Inhibitor]: ORAL, Species: RAT, Strain/Sex: F344/MALE, Target Tissue: Type of Lesion: LUNG: ADENOMA, Dose [Carcinogen]: 0.1% IN DRINKING WATER FOR 2 WK); 45%, 5%, 89%, p<0.01 (Carcinogen: N-BIS(2-HYDROXYPROPYL)NITROSAMINE, 53609-64-6, Dose [Inhibitor]: 0, 1% IN DIET FOR 30 WK BEGINNING POST CARCINOGEN TREATMENT (STUDY DURATION: 32 WK), Route [Inhibitor]: ORAL, Species: RAT, Strain/Sex: F344/MALE, Target Tissue: Type of Lesion: LUNG: CARCINOMA, Dose [Carcinogen]: 0.1% IN DRINKING WATER FOR 2 WK); 5%, 60%, -1100%, not calculated (Carcinogen: N-BIS(2-HYDROXYPROPYL)NITROSAMINE, 53609-64-6, Dose [Inhibitor]: 0, 1% IN DIET FOR 30 WK BEGINNING POST CARCINOGEN TREATMENT (STUDY DURATION: 32 WK), Route [Inhibitor]: ORAL, Species: RAT, Strain/Sex: F344/MALE, Target Tissue: Type of Lesion: THYROID: ADENOMA, Dose [Carcinogen]: 0.1% IN DRINKING WATER FOR 2 WK); 20%, 15%, 25%, not calculated (Carcinogen: N-BIS(2-HYDROXYPROPYL)NITROSAMINE, 53609-64-6, Dose [Inhibitor]: 0, 1% IN DIET FOR 30 WK BEGINNING POST CARCINOGEN TREATMENT (STUDY DURATION: 32 WK), Route [Inhibitor]: ORAL, Species: RAT, Strain/Sex: F344/MALE, Target Tissue: Type of Lesion: THYROID: CARCINOMA, Dose [Carcinogen]: 0.1% IN DRINKING WATER FOR 2 WK); 10/18 (56%), 0/18 (0%), 100%, p<0.01 (Carcinogen: N-METHYL-N'-NITRO-N-NITROSOGUANIDINE, 70-25-7, N-ETHYL-N-HYDROXYETHYLNITROSAMINE, 13147-25-6, N-METHYLBENZYLNITROSAM, Carcinogen: N-METHYL-N'-NITRO-N-NITROSOGUANIDINE, 70-25-7, N-ETHYL-N-HYDROXYETHYLNITROSAMINE, 13147-25-6, N-METHYLBENZYLNITROSAM, Dose [Inhibitor]: 0, 0.7% IN DIET FOR 36 WK (STUDY DURATION: 36 WK), Route [Inhibitor]: ORAL, Species: RAT, Strain/Sex: F344/MALE, Target Tissue: Type of Lesion: COLON: CARCINOMA, Dose [Carcinogen]: 100 MG/KG BW MNNG ONCE, 750 MG/KG BW EHEN ONCE, 0.5 MG/KG BW MBN TWICE, 40 MG/KG BW DMH 4 TIMES, 0.05% DBN IN DRINKING W); 8/18 (44%), 1/18 (6%), 86%, p<0.01 (Carcinogen: N-METHYL-N'-NITRO-N-NITROSOGUANIDINE, 70-25-7, N-ETHYL-N-HYDROXYETHYLNITROSAMINE, 13147-25-6, N-METHYLBENZYLNITROSAM, Carcinogen: N-METHYL-N'-NITRO-N-NITROSOGUANIDINE, 70-25-7, N-ETHYL-N-HYDROXYETHYLNITROSAMINE, 13147-25-6, N-METHYLBENZYLNITROSAM, Dose [Inhibitor]: 0, 0.7% IN DIET FOR 36 WK (STUDY DURATION: 36 WK), Route [Inhibitor]: ORAL, Species: RAT, Strain/Sex: F344/MALE, Target Tissue: Type of Lesion: KIDNEY: RENAL CELL TUMOR, Dose [Carcinogen]: 100 MG/KG BW MNNG ONCE, 750 MG/KG BW EHEN ONCE, 0.5 MG/KG BW MBN TWICE, 40 MG/KG BW DMH 4 TIMES, 0.05% DBN IN DRINKING W). The “tumour outcome (control, treated, inhibition, significance)” value was 21/30 (70%), 22/30 (73%), -4%, not significant (Carcinogen: N-METHYL-N-NITROSOUREA, 684-93-5, Dose [Inhibitor]: 0.3% IN DIET FROM WEANING ONWARD (STUDY DURATION: 6 MO AFTER CARCINOGEN ADMINISTRATION), Route [Inhibitor]: ORAL, Species: RAT, Strain/Sex: SPRAGUE-DAWLEY/FEMALE, Target Tissue: Type of Lesion: MAMMARY GLAND: ADENOCARCINOMA, Dose [Carcinogen]: SINGLE INJECTION VIA DORSAL TAIL VEIN AT 5 MG/100 G BODY WEIGHT. MNU WAS WET IN 3% ACETIC ACID + DISSOLVED IN WATER (DOU); 70%, 73%, -4%, not calculated (Carcinogen: N-METHYL-N-NITROSOUREA, 684-93-5, Dose [Inhibitor]: 0.3% IN HIGH POLYUNSATURATED FAT DIET DAILY STARTING 29 D BEFORE CARCINOGEN TREATMENT AND CONTINUING FOR THE DURATION OF, Route [Inhibitor]: ORAL, Species: RAT, Strain/Sex: SPRAGUE-DAWLEY/FEMALE, Target Tissue: Type of Lesion: MAMMARY GLAND: ADENOCARCINOMA, Dose [Carcinogen]: 5 MG/100 G BW ONCE AT 50 D OF AGE); 85%, 91%, -7%, not significant (Carcinogen: URETHANE, 51-79-6, Dose [Inhibitor]: 0.75% IN DIET 1/WK FOR 24 HR AFTER OVERNIGHT FAST FOR 8 WK 1 WK AFTER CARCINOGEN TREATMENT (STUDY DURATION: 4 MO), Route [Inhibitor]: ORAL, Species: MOUSE, Strain/Sex: STRAIN-A/MALE, Target Tissue: Type of Lesion: LUNG: TYPE II ALVEOLAR CELL TUMORS, CLARA CELL TUMORS, Dose [Carcinogen]: 250 MG/KG, ONCE AT 8 WK OF AGE); 100%, 100%, 0%, not significant (Carcinogen: URETHANE, 51-79-6, Dose [Inhibitor]: 0.75% IN DIET 1/WK FOR 24 HR AFTER OVERNIGHT FAST FOR 8 WK 1 WK AFTER CARCINOGEN TREATMENT (STUDY DURATION: 4 MO), Route [Inhibitor]: ORAL, Species: MOUSE, Strain/Sex: STRAIN-A/MALE, Target Tissue: Type of Lesion: LUNG: TYPE II ALVEOLAR CELL TUMORS, CLARA CELL TUMORS, Dose [Carcinogen]: 500 MG/KG, ONCE AT 8 WK OF AGE); 100%, 97%, 3%, not significant (Carcinogen: URETHANE, 51-79-6, Dose [Inhibitor]: 0.75% IN DIET 1/WK FOR 24 HR AFTER OVERNIGHT FAST FOR 8 WK BEGINNING 1 WK POST CARCINOGEN TREATMENT (STUDY DURATION: 4 M, Route [Inhibitor]: ORAL, Species: MOUSE, Strain/Sex: STRAIN A/MALE, Target Tissue: Type of Lesion: LUNG: TYPE II ALVEOLAR CELL TUMORS, CLARA CELL TUMORS, Dose [Carcinogen]: 500 MG/KG, ONCE AT 8 WK OF AGE); 96%, 90%, 6%, not significant (Carcinogen: URETHANE, 51-79-6, Dose [Inhibitor]: 0.75% IN DIET, DAILY BEGINNING 1 D AFTER CARCINOGEN TREATMENT FOR 8 WK (STUDY DURATION: 4 MO), Route [Inhibitor]: ORAL, Species: MOUSE, Strain/Sex: STRAIN-A/MALE, Target Tissue: Type of Lesion: LUNG: TYPE II ALVEOLAR CELL TUMORS, CLARA CELL TUMORS, Dose [Carcinogen]: 250 MG/KG, ONCE AT 8 WK OF AGE). Moreover, the “tumour outcome (control, treated, inhibition, significance)” value is, setting by setting: (Carcinogen: URETHANE, 51-79-6, Dose [Inhibitor]: 0.75% IN DIET, DAILY BEGINNING 1 D AFTER CARCINOGEN TREATMENT FOR 8 WK (STUDY DURATION: 40 MO), Route [Inhibitor]: ORAL, Species: MOUSE, Strain/Sex: STRAIN-A/MALE, Target Tissue: Type of Lesion: LUNG: TYPE II ALVEOLAR CELL TUMORS, CLARA CELL TUMORS, Dose [Carcinogen]: 500 MG/KG, ONCE AT 8 WK OF AGE) 100%, 100%, 0%, not significant; (Carcinogen: URETHANE, 51-79-6, Dose [Inhibitor]: 300 MG/KG 1 WK AFTER CARCINOGEN DOSE 1/WK FOR 8 WK (STUDY DURATION: 4 MO), Route [Inhibitor]: INTRAPERITONEAL, Species: MOUSE, Strain/Sex: STRAIN-A/MALE, Target Tissue: Type of Lesion: LUNG: TYPE II ALVEOLAR CELL TUMORS, CLARA CELL TUMORS, Dose [Carcinogen]: 500 MG/KG, ONCE AT 8 WK OF AGE) 97%, 100%, -3%, not significant. Also, the outcome by setting is: (Carcinogen: N-METHYL-N'-NITRO-N-NITROSOGUANIDINE, 70-25-7, N-ETHYL-N-HYDROXYETHYLNITROSAMINE, 13147-25-6, N-METHYLBENZYLNITROSAM, Carcinogen: N-METHYL-N'-NITRO-N-NITROSOGUANIDINE, 70-25-7, N-ETHYL-N-HYDROXYETHYLNITROSAMINE, 13147-25-6, N-METHYLBENZYLNITROSAM, Dose [Inhibitor]: 0, 0.7% IN DIET FOR 36 WK (STUDY DURATION: 36 WK), Route [Inhibitor]: ORAL, Species: RAT, Strain/Sex: F344/MALE, Target Tissue: Type of Lesion: THYROID GLAND: ADENOMA OR CARCINOMA, Dose [Carcinogen]: 100 MG/KG BW MNNG ONCE, 750 MG/KG BW EHEN ONCE, 0.5 MG/KG BW MBN TWICE, 40 MG/KG BW DMH 4 TIMES, 0.05% DBN IN DRINKING W) 0/18 (0%), 6/18 (33%), -333%, p<0.05; (Carcinogen: URETHANE, 51-79-6, Dose [Inhibitor]: 0.75% IN DIET FOR 2 WK BEFORE CARCINOGEN TREATMENT (STUDY DURATION: 4 MO), Route [Inhibitor]: ORAL, Species: MOUSE, Strain/Sex: STRAIN-A/MALE, Target Tissue: Type of Lesion: LUNG: TYPE II ALVEOLAR CELL TUMORS, CLARA CELL TUMORS, Dose [Carcinogen]: 1000 MG/KG, ONCE) 100%, 100%, o%, not significant.
